Data: ChEMBL document CHEMBL3044581, “Synthesis and fungicidal activities of silicon-containing derivatives of 2-aryl-3-(1H-1,2,4-triazol-1-yl)propanenitriles” (2001)

What was measured:
Podosphaera fuliginea = test: Antifungal activity against Podosphaera fuliginea infected compound-pre-treated cucumber seedlings at 300 ppm incubated for 2 days prior to infection measured after 4 days relative to buthiobate; assay type: functional
Rhizoctonia solani = test: Antifungal activity against Rhizoctonia solani infected compound-pre-treated rice seedlings at 300 ppm incubated for 2 days prior to infection measured after 4 days relative to diclomezine; assay type: functional

Compound | Activity_index (Podosphaera fuliginea) | Activity_index (Rhizoctonia solani)
C[Si](C)(C)CC(C#N)(Cn1cncn1)c1ccc(Cl)cc1Cl (centres undefined) | 2 | 2
C[Si](C)(C)CC(C#N)(Cn1cncn1)c1ccc(Cl)c(Cl)c1 (centres undefined) | 2 | 0
C[Si](C)(CC(C#N)(Cn1cncn1)c1ccc(Cl)cc1)c1ccccc1 (centres undefined) | 2 | 0
C[Si](C)(CC(C#N)(Cn1cncn1)c1ccccc1)c1ccccc1 (centres undefined) | 2 | 0
C[Si](C)(CC(C#N)(Cn1cncn1)c1cccc(Oc2ccccc2)c1)c1ccccc1 (centres undefined) | 0 | 0
C[Si](C)(C)CC(C#N)(Cn1cncn1)c1ccc(F)cc1 (centres undefined) | 0 | 2
C[Si](C)(C)CC(C#N)(Cn1cncn1)c1ccc(Cl)cc1 (centres undefined) | 0 | 2
C[Si](C)(C)CC(C#N)(Cn1cncn1)c1ccccc1 (centres undefined) | 2 | 2
COc1ccc(C(C#N)(Cn2cncn2)C[Si](C)(C)C)cc1 (centres undefined) | 2 | 2
Cc1ccc(C(C#N)(Cn2cncn2)C[Si](C)(C)C)cc1 (centres undefined) | 2 | 0
C[Si](C)(C)CC(C#N)(Cn1cncn1)c1ccccc1Cl (centres undefined) | 0 | 2
C[Si](C)(C)CC(C#N)(Cn1cncn1)c1cccc(Cl)c1 (centres undefined) | 2 | 0
